The structures appear in SMILES notation.

For test [1], the target named is benzodiazepine receptor. The test is described as follows: in vitro benzodiazepine receptor binding assay (inhibition of specific binding of 2 nM tritiated diazepam). The note with it: membranes from rat fore-brain, 0°-5°, 30 minutes, pH7.5. The method, then: The benzodiazepine receptor binding properties indicative of the nervous system regulatory activity of said new compounds are determined in the receptor binding assay in vitro, e.g. as described in Nature 266, 732 (1977) or Proc. Nat. Acad. Sci. USA 74, 3805 (1977). Diazepam binds specifically and with high affinity to crude synaptosomal membrane preparations from rat fore-brain. This binding is inhibited by other anxiolytic compounds. When tritiated diazepem is used, the interaction of other drugs with said receptor can be readily assessed thus: membranes from rat fore-brain are incubated at 0°-5° for 30 minutes with 2 nM tritiated diazepam and various concentrations of the test substance in a buffer medium maintained at pH7.5. Solutions of the various concentrations of test substances are prepared by dilution of a 4.2 mM stock solution in dimethylacetamide-ethanol (1:10) with 50 mM pH7.5 Tris-HCl buffer. The membranes, containing the receptors with various amounts of tritiated diazepam, are filtered onto glass fiber filters, which are then analyzed in a liquid scintillation counter. The concentration of the compounds of this invention, required to inhibit the specific binding of 2 nM of tritiated diazepam by 50%, i.e. the IC50, is determined graphically.

For test [2], the system named is benzodiazepine receptor. The test is described as follows: in vivo benzodiazepine receptor binding (3H-flunitrazepam). More on the design: species or system mice or rats. Conditions: dose of about 30 mg/kg i.p. The method, then:
In vivo benzodiazepine receptor binding is determined essentially as described in Eur. J. Pharmacol. 48, 213 (1978) and Nature 275, 551 (1978).
Test compounds in a corn starch vehicle are administered orally or intraperitioneally to mice or rats. Thirty minutes later, 3H-flunitrazepam(2 nmoles/Kg in saline) is injected into the tail vein, and the animals are sacrificed 20 minutes after injection of the flunitrazepam. The brains are then assayed by determining radioactivity in a liquid scintillation counter for binding of the radioligand to the receptors. A decrease in the binding of 3H-flimotrazepam in the drug-treated animals (as compared with the binding observed in animals treated with vehicle alone) is indicative of benzodiazepine receptor binding by the test compound.

Turning to `O=c1c2c[nH]c3ccccc3c-2nn1-c1ncccn1` [Example 1, 2-(2-pyrimidyl)-pyrazolo[4,3-c]quinolin-3(5H)-one], the half-maximal inhibitory concentration (IC50) in test [1] is roughly 6 nM. On to `O=c1c2c[nH]c3ccc(F)cc3c-2nn1-c1ncccn1` [Example 2, 8-fluoro-2-(2-pyrimidyl)-pyrazolo[4,3-c]quinolin-3(5H)-one], for which, in test [1], the IC50 is roughly 2 nM. On to `O=c1c2c[nH]c3ccccc3c-2nn1-c1nccs1` [Example 4, 2-(2-thiazolyl)-pyrazolo[4,3-c]quinolin-3(5H)-one], for which the “inhibition of flunitrazepam binding in vivo” value in test [2] is on record as “inhibits flunitrazepam binding in vivo”. This compound also showed an IC50 in test [1] of roughly 0.3 nM.

(Values after patent publication US4524146A, “Certain -2-heterocycle substituted pyrazoloquinolines” (Ciba-Geigy Corporation, priority 1982, dated 1985).)
